These results are taken from article PMC13110364, “Design, Synthesis, and Biological Evaluation of Novel Triazine‐Based Dual Histone Deacetylase/phosphatidylinositol 3‐kinase Inhibitors for Breast Cancer Therapy” (Chemmedchem, 2026).

Values joined by “and” are separate entries in the source; they are usually repeats but may differ in a detail not shown here. Identical values can stand only once.

The test system of one assay is LY2 breast cancer cells. In words: MTS cell viability assay, LY2. The format is cell-based. To be noted: 72 h treatment. How it is done:
(§1) The cell viability effects of compounds 5a–5f were assessed in LY2, JIMT1, and MDA‐MB‐231 breast cancer cell lines using the 3‐(4,5‐dimethylthiazol‐2‐yl)‐5‐(3‐carboxymethoxyphenyl)‐2‐(4‐sulfophenyl)‐2H‐tetrazolium (MTS) assay. The MTS assay measures metabolic viability and serves as a first‐pass screen.
(§2) JIMT‐1 (DSMZ ACC 589) and MDA‐MB‐231 (ATCC HTB‐26) breast cancer cell lines were maintained in Dulbecco's Modified Eagle Medium (DMEM) High Glucose with L‐glutamine (D5796, Sigma) supplemented with 10% fetal calf serum. MCF7‐derivative LY2 breast cancer cells were previously described (REF: PMID: 33420368). LY2 cells were cultured in phenol red‐free MEM (PRF‐MEM; 51 200‐046, Gibco) supplemented with 10% charcoal dextran‐stripped fetal calf serum (CDS‐FCS; F6765, Merck), 2 mmol/L L‐glutamine (G7513, Merck), and 10^−8 mol/L 4‐hydroxytamoxifen (4‐OHT; H7904, Merck). All cell lines were maintained at 37°C in a humidified incubator with 5% CO2 and regularly authenticated and tested for mycoplasma.
(§3) Cell viability was evaluated in response to increasing concentrations of 5a‐5f (0.3, 1, 3, 10, and 30 μM) or vehicle control (0.1% DMSO). LY2, JIMT1, and MDA‐MB‐231 cells were seeded at a density of 2,500 cells per well in 96‐well plates with a total volume of 100 μL per well. Prior to treatment, cells were serum‐deprived for 24 h. Following serum depletion, cells were treated in complete growth medium for 72 h. Cell viability was assessed using the MTS assay (G1111, Promega) according to the manufacturer's instructions. Absorbance was measured at 495 nm using a BioTek Synergy HTX Multi‐Mode Microplate Reader (Agilent). Results were normalized to the vehicle control (DMSO), and the half‐maximal inhibitory concentration (IC50) of the inhibitors was determined by nonlinear regression (curve fit) using a four‐parameter variable slope model.

Assay [1] concerns JIMT1 breast cancer cells. In words: MTS cell viability assay, JIMT1. The note with it: Homo sapiens, JIMT-1, 72 h treatment. The format is cell-based. As for the experimental part:
as §1, §2, §3
(Tetrazolium assays rely on reduction of a dye to a coloured formazan, in cell work by metabolically active cells.)

The target in the next assay is PI3Kα (Homo sapiens, UniProt P42336). In words: PI3Kα inhibition, 10-dose IC50 (Reaction Biology Corporation). The format is biochemical.
Sequence of PI3Kα (P42336 whole entry): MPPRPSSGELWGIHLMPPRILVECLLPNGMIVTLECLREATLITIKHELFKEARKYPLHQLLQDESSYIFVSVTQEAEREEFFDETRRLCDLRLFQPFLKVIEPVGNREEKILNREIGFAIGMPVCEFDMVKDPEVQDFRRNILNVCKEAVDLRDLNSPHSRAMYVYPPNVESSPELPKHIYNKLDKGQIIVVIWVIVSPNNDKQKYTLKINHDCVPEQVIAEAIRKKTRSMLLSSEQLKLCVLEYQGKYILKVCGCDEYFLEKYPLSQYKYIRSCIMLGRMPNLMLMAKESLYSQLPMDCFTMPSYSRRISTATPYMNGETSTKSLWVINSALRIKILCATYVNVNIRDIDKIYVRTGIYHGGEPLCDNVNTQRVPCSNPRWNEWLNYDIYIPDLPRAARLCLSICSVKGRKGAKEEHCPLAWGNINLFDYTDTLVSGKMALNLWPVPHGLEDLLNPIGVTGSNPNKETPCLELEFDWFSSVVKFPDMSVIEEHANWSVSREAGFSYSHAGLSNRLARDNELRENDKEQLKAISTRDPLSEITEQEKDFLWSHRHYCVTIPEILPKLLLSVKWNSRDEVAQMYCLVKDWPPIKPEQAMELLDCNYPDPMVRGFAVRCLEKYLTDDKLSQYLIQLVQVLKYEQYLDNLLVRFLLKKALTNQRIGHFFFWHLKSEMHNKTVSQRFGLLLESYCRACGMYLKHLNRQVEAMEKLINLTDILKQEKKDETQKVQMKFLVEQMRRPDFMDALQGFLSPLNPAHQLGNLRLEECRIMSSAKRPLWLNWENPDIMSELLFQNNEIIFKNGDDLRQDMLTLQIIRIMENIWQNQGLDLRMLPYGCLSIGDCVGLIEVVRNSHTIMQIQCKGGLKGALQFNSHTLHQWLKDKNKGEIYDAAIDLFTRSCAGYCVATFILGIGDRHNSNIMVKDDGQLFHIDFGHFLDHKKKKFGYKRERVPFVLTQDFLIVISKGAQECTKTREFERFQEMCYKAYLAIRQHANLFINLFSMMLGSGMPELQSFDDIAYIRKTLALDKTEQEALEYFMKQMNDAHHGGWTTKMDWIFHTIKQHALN
Sequence of PI3Kα (P27986 whole entry partner): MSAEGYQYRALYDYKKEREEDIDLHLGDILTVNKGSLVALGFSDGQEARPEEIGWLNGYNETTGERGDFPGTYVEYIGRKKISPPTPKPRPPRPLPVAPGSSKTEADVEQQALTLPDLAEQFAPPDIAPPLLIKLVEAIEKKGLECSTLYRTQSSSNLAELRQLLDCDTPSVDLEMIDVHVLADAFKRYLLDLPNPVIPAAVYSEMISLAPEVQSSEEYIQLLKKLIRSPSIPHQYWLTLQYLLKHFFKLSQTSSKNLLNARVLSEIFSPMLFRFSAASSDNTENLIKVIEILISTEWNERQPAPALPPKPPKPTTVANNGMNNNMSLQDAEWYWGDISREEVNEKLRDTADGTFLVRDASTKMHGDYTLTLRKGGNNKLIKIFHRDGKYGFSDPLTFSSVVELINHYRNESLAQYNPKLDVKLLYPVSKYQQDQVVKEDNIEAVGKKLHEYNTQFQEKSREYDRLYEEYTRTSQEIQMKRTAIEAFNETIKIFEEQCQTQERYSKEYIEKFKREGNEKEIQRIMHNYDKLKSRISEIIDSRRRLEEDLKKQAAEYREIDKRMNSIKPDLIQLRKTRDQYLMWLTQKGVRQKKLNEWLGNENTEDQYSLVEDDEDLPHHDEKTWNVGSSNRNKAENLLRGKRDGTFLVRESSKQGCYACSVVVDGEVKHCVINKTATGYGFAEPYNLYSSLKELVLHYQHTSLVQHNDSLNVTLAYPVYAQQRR
Another assay relates to MCF‐10A cells. In words: Cell viability in nontransformed cell line MCF-10A. The assay is classed as cell-based. To be noted: Homo sapiens. The source says:
Thus, further optimization will be required to improve the therapeutic index.
FIGURE 5 Dose‐dependent effects of compound treatment (5b and 5f) on nontransformed breast cell viability across MCF‐10A.

In a further assay the target is HDAC1 (Homo sapiens, UniProt Q13547). In words: Selectivity profile, single dose 0.5 µM, HDAC1. The assay is classed as biochemical. The note with it: remaining enzyme activity; single‐dose duplicate mode at 0.5 μM; read-out: Enzyme % activity (relative to DMSO controls) at 0.5 µM, HDAC1. How it is done:
(§4) The inhibitory profiles of 5b and 5f were evaluated against selected HDAC isoforms (HDAC1, HDAC3, HDAC4, HDAC8, and HDAC10) and PI3K isoforms (PI3Kδ, PI3Kγ, and PI3Kβ) at a fixed concentration of 0.5 µM (Table 3). […] While we explored the phenyl ring in the linker region to achieve selectivity for the HDAC6 isoform, we still observed HDAC class I inhibition. […] It is important to highlight that PI3Kδ is mainly expressed in hematopoietic system and plays roles in leukocyte signaling, T‐cell activation, and immune cell trafficking. FDA‐approved drug idelalisib is a selective PI3Kδ inhibitor in B‐cell malignancies; however, this drug is also related to disruption of the immune system, which can lead to immune manifestations, such as infections. In addition, while isoform‐selective PI3K inhibitors are well tolerated, pan‐inhibition of PI3K is less expected that compensatory mechanisms by the action of other PI3Ks can take place. Thus, a more balanced profile of PI3K inhibition can lead to an overall lack of toxicity of PI3K inhibitors.

The next assay concerns the target PI3Kδ (Homo sapiens, UniProt O00329). In words: Selectivity profile, single dose 0.5 µM, PI3Kδ. The assay is classed as biochemical. The note with it: remaining enzyme activity; single‐dose duplicate mode at 0.5 μM; read-out: Enzyme % activity (relative to DMSO controls) at 0.5 µM, PI3Kδ. As for the experimental part:
as §4

For another assay, the target named is HDAC8 (Homo sapiens, UniProt Q9BY41). In words: Selectivity profile, single dose 0.5 µM, HDAC8. The format is biochemical. The note with it: remaining enzyme activity; single‐dose duplicate mode at 0.5 μM; read-out: Enzyme % activity (relative to DMSO controls) at 0.5 µM, HDAC8. As for the experimental part: as §4
Sequence of HDAC8 (Q9BY41 whole entry): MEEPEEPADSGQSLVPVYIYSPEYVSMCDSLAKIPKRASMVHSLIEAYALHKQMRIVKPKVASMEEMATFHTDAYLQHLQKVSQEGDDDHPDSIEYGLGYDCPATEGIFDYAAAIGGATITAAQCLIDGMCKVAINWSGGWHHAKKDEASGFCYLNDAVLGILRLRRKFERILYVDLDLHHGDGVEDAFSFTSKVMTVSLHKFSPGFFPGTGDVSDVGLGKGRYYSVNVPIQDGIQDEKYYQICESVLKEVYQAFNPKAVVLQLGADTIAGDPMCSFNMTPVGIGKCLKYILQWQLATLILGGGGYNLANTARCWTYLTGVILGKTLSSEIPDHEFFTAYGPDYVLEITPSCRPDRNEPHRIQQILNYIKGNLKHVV
The next assay concerns the target HDAC6 (Homo sapiens, UniProt Q9UBN7). In words: HDAC6 inhibition, 10-dose IC50 (Reaction Biology Corporation). The format is biochemical. To be noted: 10‐dose IC50 mode, threefold serial dilutions starting at 1 μM.

Sequence of HDAC6 (Q9UBN7 whole entry): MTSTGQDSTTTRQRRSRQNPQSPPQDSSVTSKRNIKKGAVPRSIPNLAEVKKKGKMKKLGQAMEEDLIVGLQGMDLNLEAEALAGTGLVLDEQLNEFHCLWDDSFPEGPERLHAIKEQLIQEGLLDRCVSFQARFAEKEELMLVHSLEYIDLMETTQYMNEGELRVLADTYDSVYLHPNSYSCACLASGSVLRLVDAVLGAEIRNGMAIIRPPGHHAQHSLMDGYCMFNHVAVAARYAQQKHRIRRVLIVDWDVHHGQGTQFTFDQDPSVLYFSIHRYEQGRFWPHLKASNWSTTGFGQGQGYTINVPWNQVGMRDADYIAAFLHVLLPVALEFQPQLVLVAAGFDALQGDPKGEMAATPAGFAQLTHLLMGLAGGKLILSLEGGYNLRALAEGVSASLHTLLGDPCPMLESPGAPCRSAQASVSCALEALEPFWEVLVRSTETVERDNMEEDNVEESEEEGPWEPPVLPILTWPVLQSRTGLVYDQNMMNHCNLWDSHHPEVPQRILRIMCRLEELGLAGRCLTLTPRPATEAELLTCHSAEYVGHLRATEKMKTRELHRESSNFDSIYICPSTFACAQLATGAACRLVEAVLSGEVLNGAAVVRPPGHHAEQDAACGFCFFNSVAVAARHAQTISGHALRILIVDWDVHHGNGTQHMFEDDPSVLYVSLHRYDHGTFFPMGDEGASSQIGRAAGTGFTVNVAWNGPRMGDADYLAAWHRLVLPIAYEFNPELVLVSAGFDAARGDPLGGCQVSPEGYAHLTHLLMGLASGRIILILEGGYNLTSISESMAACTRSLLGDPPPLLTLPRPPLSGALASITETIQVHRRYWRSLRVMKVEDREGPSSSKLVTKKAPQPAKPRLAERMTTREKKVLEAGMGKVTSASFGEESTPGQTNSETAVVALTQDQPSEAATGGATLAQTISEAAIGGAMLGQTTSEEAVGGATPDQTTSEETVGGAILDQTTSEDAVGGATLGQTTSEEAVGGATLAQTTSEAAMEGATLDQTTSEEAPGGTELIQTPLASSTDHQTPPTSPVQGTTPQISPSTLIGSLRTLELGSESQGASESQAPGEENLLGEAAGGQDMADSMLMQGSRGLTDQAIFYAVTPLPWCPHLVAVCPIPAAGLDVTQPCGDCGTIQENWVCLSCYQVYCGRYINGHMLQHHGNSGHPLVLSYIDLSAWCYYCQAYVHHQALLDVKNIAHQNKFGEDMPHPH
Sequence of PI3Kδ (O00329 whole entry): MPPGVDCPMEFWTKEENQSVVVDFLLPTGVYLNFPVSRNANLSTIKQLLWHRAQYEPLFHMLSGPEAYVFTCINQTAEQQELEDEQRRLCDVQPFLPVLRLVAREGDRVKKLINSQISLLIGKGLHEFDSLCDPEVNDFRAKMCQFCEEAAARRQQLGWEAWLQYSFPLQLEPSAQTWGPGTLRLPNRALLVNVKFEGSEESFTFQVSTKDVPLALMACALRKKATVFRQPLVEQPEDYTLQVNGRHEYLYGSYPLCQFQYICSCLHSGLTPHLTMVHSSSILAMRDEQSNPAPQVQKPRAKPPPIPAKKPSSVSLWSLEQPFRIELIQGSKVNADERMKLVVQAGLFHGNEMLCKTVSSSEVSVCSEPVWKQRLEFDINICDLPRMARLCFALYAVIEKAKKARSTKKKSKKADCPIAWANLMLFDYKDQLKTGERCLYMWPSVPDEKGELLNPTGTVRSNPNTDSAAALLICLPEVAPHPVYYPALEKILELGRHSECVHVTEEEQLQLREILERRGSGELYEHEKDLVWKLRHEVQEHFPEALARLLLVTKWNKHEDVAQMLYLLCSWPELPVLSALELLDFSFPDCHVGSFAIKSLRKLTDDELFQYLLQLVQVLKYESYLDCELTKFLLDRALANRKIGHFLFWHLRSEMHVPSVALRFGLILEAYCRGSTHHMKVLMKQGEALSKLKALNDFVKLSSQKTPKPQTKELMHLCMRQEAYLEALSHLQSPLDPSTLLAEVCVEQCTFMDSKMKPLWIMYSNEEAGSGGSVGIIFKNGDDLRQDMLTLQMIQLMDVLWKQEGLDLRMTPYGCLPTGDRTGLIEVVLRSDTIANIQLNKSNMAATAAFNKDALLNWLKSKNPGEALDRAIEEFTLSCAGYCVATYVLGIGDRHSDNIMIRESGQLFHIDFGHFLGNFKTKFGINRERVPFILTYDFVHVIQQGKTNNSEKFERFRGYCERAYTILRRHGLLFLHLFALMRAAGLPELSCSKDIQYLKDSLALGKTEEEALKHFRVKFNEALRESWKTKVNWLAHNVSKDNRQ
Sequence of PI3Kδ (P27986 whole entry partner): as the sequence (P27986 whole entry partner) above
Sequence of HDAC1 (Q13547 whole entry, canonical isoform): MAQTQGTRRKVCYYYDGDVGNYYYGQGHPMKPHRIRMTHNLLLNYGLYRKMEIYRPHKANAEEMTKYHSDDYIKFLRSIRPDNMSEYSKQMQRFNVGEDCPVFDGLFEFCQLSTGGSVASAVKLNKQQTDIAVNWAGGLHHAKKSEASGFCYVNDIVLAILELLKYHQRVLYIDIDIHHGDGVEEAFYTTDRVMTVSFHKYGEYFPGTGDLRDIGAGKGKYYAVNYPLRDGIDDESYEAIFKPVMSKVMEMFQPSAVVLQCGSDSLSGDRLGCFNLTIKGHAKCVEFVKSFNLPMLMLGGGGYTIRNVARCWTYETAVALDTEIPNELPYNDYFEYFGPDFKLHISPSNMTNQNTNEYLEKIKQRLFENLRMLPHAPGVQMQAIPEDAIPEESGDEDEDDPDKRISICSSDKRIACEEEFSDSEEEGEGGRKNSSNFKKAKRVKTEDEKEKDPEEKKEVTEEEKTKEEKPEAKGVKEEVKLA

The term IC50 denotes the concentration that gives 50% inhibition. For the molecule `O=C(NO)c1ccc(CNc2nc(-c3cccc(O)c3)nc(N3CCOCC3)n2)cc1` [Compound 5b, N‐Hydroxy‐4‐(((4‐(3‐Hydroxyphenyl)‐6‐Morpholino‐1,3,5‐Triazin‐2‐yl)Amino)Methyl)Benzamide], the IC50 in the assay with LY2 breast cancer cells was 4.68 ± 1.34 µM; in assay [1], 5.72 ± 0.76 µM; at PI3Kα, 17.5 nM; with MCF‐10A cells, less than 1000 nM; against HDAC6, 2.33 nM and 2.3 nM. Besides, the remaining activity at 0.5 µM at HDAC1 stood at 35.9%; on PI3Kδ, 8.24%; on HDAC8 it was 46.3%.
Turning to `COc1ccc(-c2nc(NCc3ccc(C(=O)NO)cc3)nc(N3CCOCC3)n2)cn1` [Compound 5f, N‐Hydroxy‐4‐(((4‐(6‐Methoxypyridin‐3‐yl)‐6‐Morpholino‐1,3,5‐Triazin‐2‐yl)Amino)Methyl)Benzamide], the IC50 is 8.81 ± 0.59 µM with LY2 breast cancer cells; 3.5 ± 0.95 µM in assay [1]; 236 nM at PI3Kα; less than 1000 nM in the assay on MCF‐10A cells; 6.02 nM and 6 nM at HDAC6. Besides, the remaining activity at 0.5 µM at HDAC1 was found to be 35.7%; at PI3Kδ, 59.2%; at HDAC8, 46.9%.
